Source: PubChem BioAssay AID330 (DTP/NCI, 2004)
Several values for one entry are separate records, joined by “and”; a condition that tells them apart may be missing. Identical values can stand only once. Toxic doses and inconclusive results are not listed. Rule for the calls: active = survival T/C of 150% or more; inactive = T/C below 125% in these data.

Test system: P388 leukemia ip, CD2F1 mice, survival T/C
Assay: NCI In Vivo Anticancer Drug Screen. Data for tumor model P388 Leukemia (intraperitoneal) in CD2F1 (CDF1) mice
Settings: endpoint: median survival time, higher = longer survival
Outline: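 Mice carrying the transplanted tumor received test compound or vehicle. Survival was recorded in each group, and the value is the treated-group measurement divided by that of the vehicle-treated control group.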

[1] = dose: 50.0 mg/kg/injection, schedule: Q01DX005 (ip), vehicle: saline with Tween-80
[2] = dose: 100.0 mg/kg/injection, schedule: Q01DX005 (ip), vehicle: saline with Tween-80
[3] = dose: 50.0 mg/kg/injection, schedule: Q01DX009 (ip), vehicle: Klucel (hydroxypropylcellulose) (HPC)
[4] = dose: 100.0 mg/kg/injection, schedule: Q01DX009 (ip), vehicle: Klucel (hydroxypropylcellulose) (HPC)
[5] = dose: 50.0 mg/kg/injection, schedule: Q01DX005 (ip), vehicle: Klucel (hydroxypropylcellulose) (HPC)
[6] = dose: 100.0 mg/kg/injection, schedule: Q01DX005 (ip), vehicle: Klucel (hydroxypropylcellulose) (HPC)
[7] = dose: 200.0 mg/kg/injection, schedule: Q01DX005 (ip), vehicle: Klucel (hydroxypropylcellulose) (HPC)
[8] = dose: 100.0 mg/kg/injection, schedule: Q04DX002 (ip), vehicle: Klucel (hydroxypropylcellulose) (HPC)
[9] = dose: 200.0 mg/kg/injection, schedule: Q04DX002 (ip), vehicle: Klucel (hydroxypropylcellulose) (HPC)
[10] = dose: 50.0 mg/kg/injection, schedule: Q01DX009 (ip), vehicle: saline
[11] = dose: 200.0 mg/kg/injection, schedule: Q01DX009 (ip), vehicle: Klucel (hydroxypropylcellulose) (HPC)

Measured: T/C

NC(=O)c1[nH]c(=O)[nH]c(=O)c1CSc1ccc(Cl)cc1
inactive: dose: 6.25 mg/kg/injection, schedule: Q01DX005 (ip), vehicle: saline with Tween-80 99 % of control | dose: 12.5 mg/kg/injection, schedule: Q01DX005 (ip), vehicle: saline with Tween-80 97 % of control | dose: 25.0 mg/kg/injection, schedule: Q01DX005 (ip), vehicle: saline with Tween-80 107 % of control | [1] 109 % of control | [2] 111 % of control

CCOC(=O)c1nc(C(Br)(Br)Br)[nH]c(=O)c1C
inactive: dose: 6.25 mg/kg/injection, schedule: Q01DX009 (ip), vehicle: distilled water + Tween-80 102 % of control | dose: 12.5 mg/kg/injection, schedule: Q01DX009 (ip), vehicle: distilled water + Tween-80 113 % of control | dose: 25.0 mg/kg/injection, schedule: Q01DX009 (ip), vehicle: distilled water + Tween-80 116 % of control | dose: 50.0 mg/kg/injection, schedule: Q01DX009 (ip), vehicle: distilled water + Tween-80 113 % of control | dose: 100.0 mg/kg/injection, schedule: Q01DX009 (ip), vehicle: distilled water + Tween-80 113 % of control

COC1/C=C\OC2(C)Oc3c(C)c(O)c4c(O)c(c5[nH]c(-c6ccccc6)nc5c4c3C2=O)NC(=O)/C(C)=C\C=C\C(C)C(O)C(C)C(O)C(C)C(OC(C)=O)C1C (configuration not stated)
inactive: dose: 25.0 mg/kg/injection, schedule: Q01DX009 (ip), vehicle: Klucel (hydroxypropylcellulose) (HPC) 106 % of control | [3] 100 % of control | [4] 88 % of control

CCOC(=O)CCCCCCCNC(=O)N1c2c(nc(N)[nH]c2=O)NCC1CNc1ccc(C(=O)NC(CCC(=O)O)C(=O)O)cc1 (configuration not stated)
inactive: dose: 50.0 mg/kg/injection, schedule: Q01DX001 (ip), vehicle: sodium bicarbonate 100 % of control | dose: 100.0 mg/kg/injection, schedule: Q01DX001 (ip), vehicle: sodium bicarbonate 101 % of control | dose: 200.0 mg/kg/injection, schedule: Q01DX001 (ip), vehicle: sodium bicarbonate 100 % of control

Cc1ccc(N=C(N)NN=C(c2ccc(Cl)cc2)c2ccc(Cl)cc2)cc1
inactive: dose: 25.0 mg/kg/injection, schedule: Q04DX002 (ip), vehicle: saline with Tween-80 98 % of control and 103 % of control and 107 % of control | dose: 50.0 mg/kg/injection, schedule: Q04DX002 (ip), vehicle: saline with Tween-80 100 % of control and 106 % of control and 108 % of control | dose: 100.0 mg/kg/injection, schedule: Q04DX002 (ip), vehicle: saline with Tween-80 107 % of control (2×) and 109 % of control | dose: 200.0 mg/kg/injection, schedule: Q04DX002 (ip), vehicle: saline with Tween-80 105 % of control and 118 % of control and 120 % of control

Cc1ccc(CNc2cc(C)ccn2)cc1
inactive: dose: 50.0 mg/kg/injection, schedule: Q01DX009 (ip), vehicle: other 109 % of control | dose: 100.0 mg/kg/injection, schedule: Q01DX009 (ip), vehicle: other 109 % of control

O=C(OCCOCCO)c1ccccc1-c1c2cc(I)c(=O)c(I)c-2oc2c(I)c(O)c(I)cc12
inactive: dose: 60.0 mg/kg/injection, schedule: Q01DX005 (ip), vehicle: saline 94 % of control | dose: 120.0 mg/kg/injection, schedule: Q01DX005 (ip), vehicle: saline 91 % of control | dose: 240.0 mg/kg/injection, schedule: Q01DX005 (ip), vehicle: saline 92 % of control

O=C(NN(Cn1c(=S)sc2ccccc21)Cn1c(=S)sc2ccccc21)c1ccccc1O
inactive: [5] 89 % of control | [6] 91 % of control | [7] 98 % of control

O=C(O)c1ccc(OCCOc2ccccc2)cc1
inactive: dose: 50.0 mg/kg/injection, schedule: Q01DX001 (ip), vehicle: saline with Tween-80 100 % of control | dose: 100.0 mg/kg/injection, schedule: Q01DX001 (ip), vehicle: saline with Tween-80 100 % of control | dose: 200.0 mg/kg/injection, schedule: Q01DX001 (ip), vehicle: saline with Tween-80 90 % of control

Cc1nn(C(=S)S)c(C)c1N=Nc1ccccc1[N+](=O)[O-]
inactive: [8] 103 % of control | [9] 94 % of control | dose: 400.0 mg/kg/injection, schedule: Q04DX002 (ip), vehicle: Klucel (hydroxypropylcellulose) (HPC) 107 % of control

CCOC(=O)CC1(C)OCCO1
inactive: [10] 98 % of control | dose: 100.0 mg/kg/injection, schedule: Q01DX009 (ip), vehicle: saline 99 % of control | dose: 200.0 mg/kg/injection, schedule: Q01DX009 (ip), vehicle: saline 99 % of control | dose: 400.0 mg/kg/injection, schedule: Q01DX009 (ip), vehicle: saline 101 % of control

C/C=C1\CN2C3CC45c6cc(OC)c(OC)cc6N(C)C4(O3)C2CC1C5(COC(=O)c1cc(OC)c(OC)c(OC)c1)C(=O)OC (configuration not stated)
inactive: dose: 11.5 mg/kg/injection, schedule: Q01DX005 (ip), vehicle: acid diluted with saline 98 % of control | dose: 23.0 mg/kg/injection, schedule: Q01DX005 (ip), vehicle: acid diluted with saline 100 % of control | dose: 46.0 mg/kg/injection, schedule: Q01DX005 (ip), vehicle: acid diluted with saline 110 % of control | dose: 92.0 mg/kg/injection, schedule: Q01DX005 (ip), vehicle: acid diluted with saline 100 % of control

CCOC(=O)/C=C(/C)Sc1cc(O)c2ccccc2c1O
inactive: dose: 6.25 mg/kg/injection, schedule: Q01DX009 (ip), vehicle: saline with Tween-80 100 % of control

C=CCc1ccc(Oc2cc(CC=C)cc(O)c2O)cc1
inactive: dose: 25.0 mg/kg/injection, schedule: Q01DX005 (ip), vehicle: Klucel + Tween-80 101 % of control | dose: 50.0 mg/kg/injection, schedule: Q01DX005 (ip), vehicle: Klucel + Tween-80 104 % of control | dose: 100.0 mg/kg/injection, schedule: Q01DX005 (ip), vehicle: Klucel + Tween-80 106 % of control | dose: 200.0 mg/kg/injection, schedule: Q01DX005 (ip), vehicle: Klucel + Tween-80 113 % of control

Cc1cccc(Cl)c1NC(=O)C(C)N1CCCC1 (configuration not stated)
inactive: dose: 12.5 mg/kg/injection, schedule: Q01DX009 (ip), vehicle: saline 100 % of control | dose: 25.0 mg/kg/injection, schedule: Q01DX009 (ip), vehicle: saline 90 % of control | [10] 109 % of control

CCCCc1c(O)c(N=NC(N)=S)c2ccccc2c1O
inactive: [1] 95 % of control | [2] 94 % of control | dose: 200.0 mg/kg/injection, schedule: Q01DX005 (ip), vehicle: saline with Tween-80 91 % of control

CCOC(=O)Cc1ccc(-c2csc(Nc3ccccc3)n2)cc1
inactive: [3] 106 % of control | [4] 98 % of control | [11] 98 % of control

COn1nnc2ccc(Cl)cc21
inactive: [3] 99 % of control | [4] 100 % of control | [11] 100 % of control

C=C1C(=O)O[C@H]2[C@@H]3O[C@@H]3C[C@@H]12
inactive: dose: 1.56 mg/kg/injection, schedule: Q01DX009 (ip), vehicle: water 105 % of control | dose: 3.13 mg/kg/injection, schedule: Q01DX009 (ip), vehicle: water 97 % of control | dose: 6.25 mg/kg/injection, schedule: Q01DX009 (ip), vehicle: water 99 % of control | dose: 12.5 mg/kg/injection, schedule: Q01DX009 (ip), vehicle: water 100 % of control | dose: 25.0 mg/kg/injection, schedule: Q01DX009 (ip), vehicle: water 109 % of control

Brc1cc(-c2ccccc2)ccc1OCC1CO1 (configuration not stated)
inactive: [5] 101 % of control | [6] 108 % of control | [7] 97 % of control

C/C(=N\NC(=S)NNC(=S)N1CCCc2ccccc21)c1ccccn1
inactive: [8] 113 % of control | [9] 115 % of control

Cc1c(C#N)c(=O)[nH]c2ccc([N+](=O)[O-])cc12
inactive: dose: 60.0 mg/kg/injection, schedule: Q01DX005 (ip), vehicle: saline with Tween-80 94 % of control | dose: 120.0 mg/kg/injection, schedule: Q01DX005 (ip), vehicle: saline with Tween-80 93 % of control | dose: 240.0 mg/kg/injection, schedule: Q01DX005 (ip), vehicle: saline with Tween-80 100 % of control

COc1cc2c(cc1O)CC1c3c(cc(O)c(OC)c3-2)CCN1C (configuration not stated)
inactive: [1] 98 % of control | [2] 87 % of control

COc1ccc(C2C(C#N)=C(c3ccccc3)OC(OC)(OC)C2(OC)OC)cc1 (configuration not stated)
inactive: dose: 60.0 mg/kg/injection, schedule: Q01DX005 (ip), vehicle: Klucel (hydroxypropylcellulose) (HPC) 102 % of control | dose: 120.0 mg/kg/injection, schedule: Q01DX005 (ip), vehicle: Klucel (hydroxypropylcellulose) (HPC) 102 % of control | dose: 240.0 mg/kg/injection, schedule: Q01DX005 (ip), vehicle: Klucel (hydroxypropylcellulose) (HPC) 99 % of control
